≈ marks a conversion by molar mass, not a printed value.
Molecular target: KRAS (G12D)::SOS1 protein-protein interaction (Homo sapiens (Human), UniProt P01116, G12D)
Assay: KRAS::SOS1 AlphaScreen binding assay (KRAS G12D)
Details: GDP
From the text: (§1) This assay can be used to examine the potency with which compounds according to the invention binding to (mutated) KRAS inhibit the protein-protein interaction between SOS1 and (mutated) KRAS e.g. KRAS G12C, KRAS G12D. […] Low IC50 values in this assay setting are indicative of strong inhibition of protein-protein interaction between SOS1 and KRAS:
(§2) These assays measure the inhibitory effect of compounds on KRAS mutant protein-protein interactions using the Alpha Screen technology by Perkin Elmer.
(§3) The following (mutant) enzyme forms of KRAS and interacting proteins are used in these assays at the given concentrations:
KRAS (G12D) 1-169, N-terminal 6His-tag, C-terminal avi-tag (Xtal BioStructures, Inc.); final assay concentration 10 nM and SOS1 564-1049, N-terminal 229 GST-tag, TEV cleavage site (Viva Biotech Ltd); final assay concentration 5 nM;
(§4) Test compounds dissolved in DMSO are dispensed onto assay plates (Proxiplate 384 PLUS, white, PerkinElmer; 6008289) using an Access Labcyte Workstation with the Labcyte Echo 55x. For the chosen highest assay concentration of 100 μM, 150 nL of compound solution are transferred from a 10 mM DMSO compound stock solution. A series of eleven fivefold dilutions per compound are transferred to the assay plate, compound dilutions are tested in duplicates. DMSO are added as backfill to a total volume of 150 nL.
(§5) The assays run on a fully automated robotic system in a darkened room below 100 Lux. To 150 nl of compound dilution 10 μl of a mix including KRAS mutant protein, SOS1 (final assay concentrations see above) and GDP nucleotide (Sigma G7127; final assay concentration 10 μM) in assay buffer (1×PBS, 0.1% BSA, 0.05% Tween 20) are added into columns 1-24.
(§6) After 30 minutes incubation time 5 μl of Alpha Screen bead mix in assay buffer are added into columns 1-23. Bead mix consists of AlphaLISA Glutathione Acceptor Beads (PerkinElmer, Cat No AL109) and AlphaScreen Streptavidin Donor Beads (PerkinElmer Cat No 6760002) in assay buffer at a final assay concentration of 10 μg/mL each.
(§7) Plates are kept at room temperature in a darkened incubator. After an additional 60 minutes incubation time the signal is measured in a PerkinElmer Envision HTS Multilabel Reader using the AlphaScreen specs from PerkinElmer.
(§8) Each plate contains up to 16 wells of a negative control depending on the dilution procedure (platewise or serial) (DMSO instead of test compound; with KRAS mutant::SOS1 GOP mix and bead mix; column 23) and 16 wells of a positive control (DMSO instead of test compound; with KRAS mutant::SOS1 GOP mix w/o bead mix; column 24).
(§9) As internal control known inhibitors of KRAS mutant::SOS1 interaction can be measured on each compound plate.
(§10) IC50 values are calculated and analyzed with Boehringer Ingelheim's MEGALAB C50 application using a 4 parametric logistic model.
(§11) Tables of example compounds disclosed herein contain IC50 values determined using the above assays (see Table 43).

Chain of KRAS (G12D)::SOS1 protein-protein interaction (P01116 other isoform, or with tags, fused parts or gaps G12D): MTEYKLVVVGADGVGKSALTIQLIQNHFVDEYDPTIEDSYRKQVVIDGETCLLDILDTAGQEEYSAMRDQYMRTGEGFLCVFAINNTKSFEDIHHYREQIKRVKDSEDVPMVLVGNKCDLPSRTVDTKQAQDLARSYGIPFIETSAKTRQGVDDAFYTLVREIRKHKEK

Row | Compound | IC50 [nM]
1 | CO[C@@H]1C[C@@H]([C@H](C)Oc2nc(-c3onc4c3CCC[C@@]43CCCc4sc(N)c(C#N)c43)nc3c2n(C)c(=O)n3[C@H]2COC[C@@H](C)C2)N(C)C1 [I-52] | 1
2 | C[C@H](Oc1nc(-c2noc3c2CCC[C@@]32CCCc3sc(N)c(C#N)c32)nc2c1CCC21CCOC1)[C@@H]1CCCN1C (stereo partly shown) [II-18] | 2
3 | CO[C@@H]1C[C@@H]([C@H](C)Oc2nc(-c3noc4c3CCC[C@@]43CCCc4sc(N)c(C#N)c43)nc3c2n(C)c(=O)n3[C@@]23COC[C@@H]2C3)N(C)C1 [II-6] | 1
4 | CO[C@@H]1C[C@@H]([C@H](C)Oc2nc(-c3onc4c3CCC[C@@]43CCCc4sc(N)c(C#N)c43)nc3c2n(C)c(=O)n3[C@@]23COC[C@@H]2C3)N(C)C1 [I-46] | 1
5 | C[C@H](Oc1nc(-c2onc3c2CCC[C@@]32CCCc3sc(N)c(C#N)c32)nc2c1n(C)c(=O)n2[C@H]1CO[C@@H](C)C1)[C@@H]1CCCN1C [I-47] | 1
6 | C[C@H](Oc1nc(-c2noc3c2CCC[C@@]32CCCc3sc(N)c(C#N)c32)nc2c1n(C)c(=O)n2[C@H]1CO[C@@H](C)C1)[C@@H]1CCCN1C [II-5] | 1

System: not listed separately
Assay: Solubility measurement (DMSO solution precipitation method)
Format: physicochemical
Details: aqueous buffer, kinetic from dmso stock, McIlvaine buffer pH 4.5, 24 h, read-out: solubility pH 4.5
Procedure: A 10 mM DMSO stock solution of a test compound is used to determine its aq. solubility. The DMSO solution is diluted with an aq. medium (McIlvaine buffer with pH=4.5 or 6.8) to a final concentration of 250 μM. After 24 h of shaking at ambient temperature a potentially formed precipitate is removed by filtration. The concentration of the test compound in the filtrate is determined by LC-UV methods by calibrating the signal to the signal of a reference solution with complete dissolution of the test compound in acetonitrile/water (1:1) with known concentration.

Row | Compound | solubility at 24 h [µg/mL]
7 | CO[C@@H]1C[C@@H]([C@H](C)Oc2nc(-c3onc4c3CCC[C@@]43CCCc4sc(N)c(C#N)c43)nc3c2n(C)c(=O)n3[C@H]2COC[C@@H](C)C2)N(C)C1 [I-52] | > 153
8 | C[C@H](Oc1nc(-c2noc3c2CCC[C@@]32CCCc3sc(N)c(C#N)c32)nc2c1CCC21CCOC1)[C@@H]1CCCN1C (stereo partly shown) [II-18] | 89 (≈ 152 µM)
9 | CO[C@@H]1C[C@@H]([C@H](C)Oc2nc(-c3noc4c3CCC[C@@]43CCCc4sc(N)c(C#N)c43)nc3c2n(C)c(=O)n3[C@@]23COC[C@@H]2C3)N(C)C1 [II-6] | > 144
10 | CO[C@@H]1C[C@@H]([C@H](C)Oc2nc(-c3onc4c3CCC[C@@]43CCCc4sc(N)c(C#N)c43)nc3c2n(C)c(=O)n3[C@@]23COC[C@@H]2C3)N(C)C1 [I-46] | > 150
11 | C[C@H](Oc1nc(-c2onc3c2CCC[C@@]32CCCc3sc(N)c(C#N)c32)nc2c1n(C)c(=O)n2[C@H]1CO[C@@H](C)C1)[C@@H]1CCCN1C [I-47] | > 132
12 | C[C@H](Oc1nc(-c2noc3c2CCC[C@@]32CCCc3sc(N)c(C#N)c32)nc2c1n(C)c(=O)n2[C@H]1CO[C@@H](C)C1)[C@@H]1CCCN1C [II-5] | > 142

Same assay, conditions: aqueous buffer, kinetic from dmso stock, McIlvaine buffer pH 6.8, 24 h, read-out: solubility pH 6.8

Row | Compound | solubility at 24 h [µg/mL]
13 | CO[C@@H]1C[C@@H]([C@H](C)Oc2nc(-c3onc4c3CCC[C@@]43CCCc4sc(N)c(C#N)c43)nc3c2n(C)c(=O)n3[C@H]2COC[C@@H](C)C2)N(C)C1 [I-52] | < 1
14 | C[C@H](Oc1nc(-c2noc3c2CCC[C@@]32CCCc3sc(N)c(C#N)c32)nc2c1CCC21CCOC1)[C@@H]1CCCN1C (stereo partly shown) [II-18] | 37 (≈ 63.1 µM)
15 | CO[C@@H]1C[C@@H]([C@H](C)Oc2nc(-c3noc4c3CCC[C@@]43CCCc4sc(N)c(C#N)c43)nc3c2n(C)c(=O)n3[C@@]23COC[C@@H]2C3)N(C)C1 [II-6] | 62 (≈ 92.2 µM)
16 | CO[C@@H]1C[C@@H]([C@H](C)Oc2nc(-c3onc4c3CCC[C@@]43CCCc4sc(N)c(C#N)c43)nc3c2n(C)c(=O)n3[C@@]23COC[C@@H]2C3)N(C)C1 [I-46] | 67 (≈ 99.6 µM)
17 | C[C@H](Oc1nc(-c2onc3c2CCC[C@@]32CCCc3sc(N)c(C#N)c32)nc2c1n(C)c(=O)n2[C@H]1CO[C@@H](C)C1)[C@@H]1CCCN1C [I-47] | 101 (≈ 157 µM)
18 | C[C@H](Oc1nc(-c2noc3c2CCC[C@@]32CCCc3sc(N)c(C#N)c32)nc2c1n(C)c(=O)n2[C@H]1CO[C@@H](C)C1)[C@@H]1CCCN1C [II-5] | 107 (≈ 166 µM)

Molecular target: KRAS (G12C)::SOS1 protein-protein interaction (Homo sapiens (Human), UniProt P01116, C118S/C51S/C80L/G12C)
Sequence (P01116 other isoform, or with tags, fused parts or gaps G12C/C51S/C80L/C118S): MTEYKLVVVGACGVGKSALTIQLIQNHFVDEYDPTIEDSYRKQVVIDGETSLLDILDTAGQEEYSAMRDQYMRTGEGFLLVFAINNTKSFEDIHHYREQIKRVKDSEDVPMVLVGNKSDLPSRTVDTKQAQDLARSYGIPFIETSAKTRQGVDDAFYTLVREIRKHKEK
Assay: KRAS::SOS1 AlphaScreen binding assay (KRAS G12C)
Details: GDP
From the text: as §1, §2, §3
KRAS (G12C) 1-169, N-terminal 6His-tag for purification, cleaved off, C-terminal avi-tag, biotinylated, mutations: C51S, C80L, C118S (in house); final assay concentration 7.5 nM and SOS1 564-1049, N-terminal 229 GST-tag, TEV cleavage site (Viva Biotech Ltd); final assay concentration 5 nM;
as §4, §5, §6, §7, §8, §9, §10, §11

Row | Compound | IC50 [nM]
19 | C[C@H](Oc1nc(-c2noc3c2CCC[C@@]32CCCc3sc(N)c(C#N)c32)nc2c1CCC21CCOC1)[C@@H]1CCCN1C (stereo partly shown) [II-18] | 3

System: MKN1 cells
Assay: MKN1 CTG proliferation assay (120 h) (gastric cancer, wt amplified)
Format: cell-based
Details: Homo sapiens, MKN-1
Procedure: MKN1 cells (JCRB0252) are dispensed into black 384-well plates, flat and clear bottom (Greiner, PNr. 781091) at a density of 200 cells per well in 60 μl RPMI-1640 ATCC-Formulation (Gibco #A10491)+10% FCS (fetal calf serum, HyClone, SH30084.03). Cells are incubated overnight at 37° C. in a humidified tissue culture incubator at 5% CO2. Compounds (10 mM stock in DMSO) are added at logarithmic dose series using the ECHO acoustic liquid handler system (Beckman Coulter), normalizing for added DMSO and including DMSO controls. All compound treatments are performed in technical duplicates. For the TO time point measurement, untreated cells are analyzed at the time of compound addition. Plates are incubated for 120 h, and cell viability is measured using CellTiter-Glo luminescent cell viability reagent (Promega product code G7570). Viability (stated as percent of control) is defined as relative luminescence units RLU of each well divided by the RLU of cells in DMSO controls. IC50 values are determined from viability measurements by non-linear regression using a four-parameter model.
IC50 values of representative compounds according to the invention measured with these assays in the indicated cell lines are presented in Table 46.

Row | Compound | IC50 [nM]
20 | CO[C@@H]1C[C@@H]([C@H](C)Oc2nc(-c3noc4c3CCC[C@@]43CCCc4sc(N)c(C#N)c43)nc3c2n(C)c(=O)n3[C@@]23COC[C@@H]2C3)N(C)C1 [II-6] | 12
21 | CO[C@@H]1C[C@@H]([C@H](C)Oc2nc(-c3onc4c3CCC[C@@]43CCCc4sc(N)c(C#N)c43)nc3c2n(C)c(=O)n3[C@@]23COC[C@@H]2C3)N(C)C1 [I-46] | 9
22 | C[C@H](Oc1nc(-c2noc3c2CCC[C@@]32CCCc3sc(N)c(C#N)c32)nc2c1n(C)c(=O)n2[C@H]1CO[C@@H](C)C1)[C@@H]1CCCN1C [II-5] | 2

Source: patent US20250019385A1, “SPIROCYCLIC ANNULATED 2-AMINO-3-CYANO THIOPHENES AND DERIVATIVES FOR THE TREATMENT OF CANCER” (Boehringer Ingelheim International GmbH, priority 2023, published 2025)
